# Measured values reported in PubChem BioAssay AID1625 (Sanford-Burnham Center for Chemical Genomics, 2009).
# Activity calls are given as the source filed them.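 How the source made its calls: active means z-score above 3 at 5 µM with at least 500 cells counted in the well; inconclusive means wells under 500 cells, flagged as cytotoxic or low count; inactive means the rest.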
# Tested on: MIN6 insulin promoter-GFP reporter, high-content imaging
# Experiment: up-regulation of insulin promoter-GFP reporter – imaging, high-content screening, mouse beta cells (AID 1625)
row,EC50,SMILES
1,> 16 µM (inactive),CN1/C(=C\C=C(/C#N)C(=O)Nc2ccc(Cl)cc2)C(C)(C)c2ccccc21
2,> 16 µM (inactive),COc1ccc(/C=C2\C(=O)NC(=S)N2C(=O)c2ccc(F)cc2)cc1
3,12.8 µM (inactive),Nc1c(C(=O)Nc2nc3ccccc3s2)sc2nc(-c3cccs3)ccc12
4,> 16 µM (inactive),CCCN1C(=O)/C(=C/c2c(NCCCOC(C)C)nc3c(C)cccn3c2=O)SC1=S
5,1.69 µM,CCCCNc1ccc2c3c(cccc13)C(=O)N(CCCC)C2=O
6,> 16 µM (inactive),CCCCn1nc(-c2ccccc2)c2nc3ccccc3nc21
7,0.281 µM,CCN(CC)c1ccc2cc(-c3nc4ccccc4[nH]3)c(=O)oc2c1
8,1.61 µM,Cc1cc(/C=C2/C(=O)N(C)C(=S)N2C)ccc1N1CCCC1
9,> 16 µM (inactive),CCOC(=O)c1c(-c2ccc(C)cc2)csc1NC(=O)/C(C#N)=C/c1ccc(O)c(OC)c1
10,> 16 µM (inactive),Cc1ccc(/C=[N+](\[O-])c2ccc(N(C)C)cc2)c2nsnc12
11,5.91 µM,Nc1c(C(=O)Nc2nccs2)sc2nc(-c3cccs3)cc(C(F)(F)F)c12
12,> 16 µM (inactive),CC(C)(C)C(=O)c1sc2nc(-c3cccs3)cc(C(F)(F)F)c2c1N
13,> 16 µM (inactive),CN(C)c1ccc(/C=C2\C(=N)N3C(=NC2=O)Sc2cc(S(C)(=O)=O)ccc23)cc1
14,> 16 µM (inactive),N#C/C(=C\c1ccc(N2CCOCC2)o1)C(=O)NCCc1ccccc1
15,13.9 µM (inactive),CCCN1C(=O)S/C(=C\c2ccc(N3CCOCC3)o2)C1=O
16,7.43 µM,COc1cc2nc(/C=C/c3ccc(N(C)C)cc3)sc2cc1SC
17,10.4 µM (inactive),CCCN1C=CC(=CC=C(C#N)C#N)C=C1
18,14.1 µM (inactive),CCN1CCc2c(sc(NC(=S)NC(=O)c3ccc(Cl)cc3)c2C(N)=O)C1
19,> 16 µM (inactive),CC(=O)Cc1cc(O)c2ccccc2c1OC(=O)c1ccc(Br)cc1
20,3.78 µM,CCN1CC=C2C(C#N)=C(N)C(C#N)(C#N)[C@H](c3cccc(OC)c3OC)[C@H]2C1
21,> 16 µM (inactive),O=[N+]([O-])c1ccc(N/N=C/c2ccc[nH]2)cc1

# The remaining lines, values behind:
row,SMILES,EC50
1,Cc1oc(C)c2c(=O)ccc3c(c12)OC(N)=C(C#N)C3c1ccccc1Cl (centres undefined),11.4 µM (inactive)
2,COc1ccc(CN=Cc2[nH]c3ccc(Br)c(Cl)c3c2O)cc1,> 16 µM (inactive)
3,CC1=CN2C(=N)/C(=C/c3ccc([N+](=O)[O-])o3)C(=O)N=C2S1,> 16 µM (inactive)
4,N#C/C(=C/c1ccc(N2CCOCC2)o1)c1nc2ccccc2[nH]1,7.76 µM
5,COc1ccc(N=C2NC(=O)S/C2=C\c2ccc(N(C)C)cc2)cc1,> 16 µM (inactive)
6,Cn1c(/C(C#N)=C/c2ccc(-c3ccc(S(N)(=O)=O)cc3)o2)nc2ccccc21,> 16 µM (inactive)
7,Cc1n[nH]c(C)c1N1C(=O)c2cccc3c(N4CCCCCC4)ccc(c23)C1=O,9.13 µM
8,N#C/C(=C/c1ccc(N2CCCCC2)o1)C(=O)Nc1ccc(Cl)cc1,0.482 µM
9,Cc1nn(C)cc1N1C(=O)c2cccc3c(N)ccc(c23)C1=O,> 16 µM (inactive)
10,CC(=O)c1c(N2CCOCC2)[nH]c(-c2ccccc2)nc1=S,13.5 µM (inactive)
11,CCCN1CC=C2C(C#N)=C(N)C(C#N)(C#N)C(c3cccc(OC)c3OC)C2C1 (centres undefined),7.34 µM
12,C=CCN1C(=O)/C(=C\C=C2\N(C)c3ccccc3C2(C)C)SC1=S,> 16 µM (inactive)
13,CCN(CC)c1ccc(/C=C(\C#N)C(=O)c2ccc(Br)cc2)cc1,12 µM (inactive)
14,Nc1c(C(=O)c2cccs2)sc2nsc(SCCN3CCCCC3)c12,9.62 µM
15,C=CCN1C(=O)/C(=C/c2ccc(N(C)C)cc2)S/C1=N\c1nnc(CC)s1,3.86 µM
16,Cc1cc(N2CCCC2)ccc1/C=C1\NC(=S)N(C)C1=O,9.87 µM
17,N#C/C(=C/c1ccc(N2CCCCC2)o1)C(=O)Nc1ccc2ccccc2c1,0.564 µM
18,CCOC(=O)Cc1csc(NC(=O)c2sc3nc4c(C)cc(C)cc4cc3c2N)n1,> 16 µM (inactive)
19,O=C(C1=C(O)C(=O)N(c2nccs2)C1c1ccccc1)c1cc2ccccc2o1 (centres undefined),13.3 µM (inactive)
20,COc1cc([C@@H]2[C@H]3CNCC=C3C(C#N)=C(N)C2(C#N)C#N)ccc1OC(C)C,> 16 µM (inactive)
21,N#C/C(=C\N1CCN(Cc2ccc3c(c2)OCO3)CC1)c1nc2ccccc2s1,> 16 µM (inactive)
22,CCN(CC)c1ccc(/C=C(/C#N)c2nc3ccc(C)cc3[nH]2)c(OC(C)C)c1,2.87 µM
23,COC(=O)c1cc2c(-c3ccccc3)c(C)c3ccccn3c-2c1C(=O)OC,> 16 µM (inactive)
24,N#Cc1cccc(NC(=O)CSc2ccc3c4c(cccc24)C(=O)c2ccccc2-3)c1,14.7 µM (inactive)
25,CCCN1C(=O)S/C(=C/c2ccc(N3CCOCC3)o2)C1=O,8.06 µM
26,CCCC1C2CN(C(C)C)CC=C2C(C#N)=C(N)C1(C#N)C#N (centres undefined),5.53 µM
27,Cc1ccc(CNc2ccc3c(c2)OCO3)c(C)c1,> 16 µM (inactive)
28,CCCN1C=CC(=C/C=C(\C#N)C(=O)OCC)C=C1,> 16 µM (inactive)
